# Reference: US20240286998A1, “F[…], ANALOGUES THEREOF, AND METHODS USING SAME” (Saint Joseph's University, priority 2021, published 2024)
# Molecular target: Serotonin 5-HT2A (human) (Homo sapiens (Human), UniProt P28223)
# Experiment: 5-HT2A receptor binding, [3H]-ketanserin competition in membrane fractions
# Conditions: 1 nM [3H]-ketanserin, Cheng-Prusoff, N=1-3
row,SMILES,5-HT2A pKi ± SEM
1,"CCCN(CC)CCc1c[nH]c2ccc(F)c(F)c12 [compound 21, N-(2-(4,5-difluoro-1H-indol-3-yl)ethyl)-N-ethylpropan-1-amine]",6.15
2,"C#CCN(CCc1c[nH]c2ccc(F)cc12)C(C)C [compound 34, N-(2-(5-fluoro-1H-indol-3-yl)ethyl)-N-isopropylprop-2-yn-1-amine]",5.78
3,"C=CCN(CCC)CCc1c[nH]c2ccc(F)cc12 [compound 35, N-(2-(5-fluoro-1H-indol-3-yl)ethyl)-N-propylprop-2-en-1-amine]",6.38 ± 0.29
4,"CCCN(CC)CCc1c[nH]c2cc(Cl)c(F)cc12 [compound 37, N-(2-(6-chloro-5-fluoro-1H-indol-3-yl)ethyl)-N-ethylpropan-1-amine]",6.04 ± 0.05
5,"CC(C)CN(C)CCc1c[nH]c2ccc(F)cc12 [compound 39, N-(2-(5-fluoro-1H-indol-3-yl)ethyl)-N,2-dimethylpropan-1-amine]",6.12
6,"CCCN(CC)CCc1c[nH]c2c(F)cc(F)cc12 [compound 72, N-[2-(5,7-difluoro-1H-indol-3-yl)ethyl]-N-ethylpropan-1-amine]",6.30 ± 0.06
7,"CCC(C)N(CCc1c[nH]c2ccc(F)cc12)C1CCC1 (centres unmarked) [compound 158, N-(sec-butyl)-N-(2-(5-fluoro-1H-indol-3-yl)ethyl)cyclobutanamine]",6.08 ± 0.15
8,"CN(CCc1c[nH]c2ccc(F)cc12)C1CC1 [compound 160, N-(2-(5-fluoro-1H-indol-3-yl)ethyl)-N-methylcyclopropanamine]",7.41 ± 0.33
9,"CCCN(CCc1c[nH]c2ccc(F)cc12)C1CC1 [compound 161, N-[2-(5-fluoro-1H-indol-3-yl)ethyl]-N-propylcyclopropanamine]",6.50
10,"CCCN(CCc1c[nH]c2c(F)cccc12)C1CCC1 [compound 162, N-(2-(7-fluoro-1H-indol-3-yl)ethyl)-N-propylcyclobutanamine]",5.91
11,"CCCN(CCc1c[nH]c2c(F)cccc12)C(C)CC (centres unmarked) [compound 163, N-[2-(7-fluoro-1H-indol-3-yl)ethyl]-N-propylbutan-2-amine]",5.65 ± 0.004
12,"CCN(C)CCc1c[nH]c2c(C)cc(F)cc12 [compound 169, N-ethyl-2-(5-fluoro-7-methyl-1H-indol-3-yl)-N-methylethan-1-amine]",6.05
13,"CCC(C)N(CC#N)CCc1c[nH]c2ccc(F)cc12 (centres unmarked) [compound 177, 2-(sec-butyl(2-(5-fluoro-1H-indol-3-yl)ethyl)amino)acetonitrile]",5.71
14,"CCN(C)CCc1c[nH]c2c(Cl)cc(F)cc12 [compound 182, 2-(7-chloro-5-fluoro-1H-indol-3-yl)-N-ethyl-N-methylethan-1-amine]",6.62
15,"CCCN1CCC[C@@H]1Cc1c[nH]c2ccc(F)cc12 [compound 184, (R)-5-fluoro-3-((1-propylpyrrolidin-2-yl)methyl)-1H-indole]",6.60
16,"CN1CCC[C@@H]1Cc1c[nH]c2cc(F)c(F)cc12 [compound 185, (R)-5,6-difluoro-3-((1-methylpyrrolidin-2-yl)methyl)-1H-indole]",6.90
17,"CN1CCC[C@@H]1Cc1c[nH]c2c(F)cccc12 [compound 186, (R)-7-fluoro-3-((1-methylpyrrolidin-2-yl)methyl)-1H-indole]",6.47
